Measured values from publication PMC6858373 (Scientific Reports, 2019).

Legend:
[1] = target: full-length P. pyralis luciferase (Photinus pyralis, UniProt P08659, K549A/L550V/N119G/N50D/S548I); assay type: cell-based; settings: CC_NCI screening; normalized to on-plate 0.3% DMSO controls
[2] = target: T1, FGF14:Nav1.6 C-tail complex (Homo sapiens, UniProt Q92915+Q9UQD0); experiment: Split-luciferase complementation assay (LCA) in Clone V double stable HEK293 cells; assay type: cell-based; settings: for Split Luciferase Assay Z-score Set 1 / Split Luciferase Assay % Lum Set 1 / Split Luciferase Assay Z-score Set 2 / Split Luciferase Assay %Lum Set 2: CC_NCI screening; for Split Luciferase Assay Z-score Set 1 / Split Luciferase Assay % Lum Set 1: biological replicate Set 1; for Split Luciferase Assay Z-score Set 1 / Split Luciferase Assay Z-score Set 2: normalized to on-plate 0.3% DMSO controls; for Split Luciferase Assay % Lum Set 1 / Split Luciferase Assay %Lum Set 2: normalized to on-plate 0.3% DMSO controls (n=16 per plate); for Split Luciferase Assay Z-score Set 2 / Split Luciferase Assay %Lum Set 2: biological replicate Set 2; for Split Luciferase Assay %Lum Avg: average of Set 1 and Set 2, normalized to 0.3% DMSO controls
T1 construct: polymerase chain reaction (PCR) amplification of the FGF14 open reading frame (nt 1–855); C-terminal fragment of Nav1.6 (amino acids 1763–1976) fused with CD4ΔC-tail (amino acids 1–395); expressed in transfected cells
T1 sequence (Q92915 1-252 isoform Q92915-2): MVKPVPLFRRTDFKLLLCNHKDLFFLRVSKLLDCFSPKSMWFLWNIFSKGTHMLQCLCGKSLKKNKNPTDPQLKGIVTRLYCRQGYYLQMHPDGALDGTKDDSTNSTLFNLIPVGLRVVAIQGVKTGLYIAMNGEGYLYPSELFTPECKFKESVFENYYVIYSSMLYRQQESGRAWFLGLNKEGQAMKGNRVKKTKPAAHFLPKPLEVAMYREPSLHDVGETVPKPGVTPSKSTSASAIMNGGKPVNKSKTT
T1 sequence (Q9UQD0 1763-1976 limits assumed): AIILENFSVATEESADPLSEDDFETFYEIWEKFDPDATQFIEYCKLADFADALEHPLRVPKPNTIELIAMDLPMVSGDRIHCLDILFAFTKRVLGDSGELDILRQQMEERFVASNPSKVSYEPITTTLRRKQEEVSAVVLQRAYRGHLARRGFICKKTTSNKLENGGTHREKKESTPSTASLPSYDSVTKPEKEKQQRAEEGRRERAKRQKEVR

Clone V cells = experiment: CellTiter Blue (CTB) cell viability counter-screen; settings: CC_NCI screening; normalized to on-plate 0.3% DMSO controls
in vitro = settings: human, Clone V cells

Sequence of full-length P. pyralis luciferase (P08659 whole entry N50D/N119G/S548I/K549A/L550V, looked up): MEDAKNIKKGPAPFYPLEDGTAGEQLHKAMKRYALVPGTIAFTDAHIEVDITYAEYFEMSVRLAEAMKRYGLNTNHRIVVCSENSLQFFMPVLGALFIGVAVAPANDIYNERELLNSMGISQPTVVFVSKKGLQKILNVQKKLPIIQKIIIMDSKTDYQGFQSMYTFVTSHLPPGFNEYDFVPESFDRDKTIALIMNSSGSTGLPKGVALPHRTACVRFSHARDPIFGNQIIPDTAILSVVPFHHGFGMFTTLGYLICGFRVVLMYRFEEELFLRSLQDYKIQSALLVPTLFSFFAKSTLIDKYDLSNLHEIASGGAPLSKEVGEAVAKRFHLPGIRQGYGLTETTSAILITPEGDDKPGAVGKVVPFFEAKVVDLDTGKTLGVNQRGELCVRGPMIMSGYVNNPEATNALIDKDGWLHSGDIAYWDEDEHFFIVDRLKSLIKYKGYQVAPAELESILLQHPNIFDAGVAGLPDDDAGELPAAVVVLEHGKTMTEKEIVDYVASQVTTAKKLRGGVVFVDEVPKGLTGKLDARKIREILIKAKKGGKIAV

SMILES | Luciferase Assay % Lum (full-length luciferase counter-screen) [1] | Luciferase Assay Z-score (full-length luciferase counter-screen) [1] | Split Luciferase Assay Z-score Set 1 [2] | Split Luciferase Assay % Lum Set 1 [2] | Split Luciferase Assay Z-score Set 2 [2] | Split Luciferase Assay %Lum Set 2 [2] | Split Luciferase Assay %Lum Avg [2] | Toxicity Assay Z-score (CTB cell viability) (Clone V cells) | viability at 16 h, 30 µM (in vitro)
CC(=O)O[C@@]12CO[C@@H]1C[C@H](O)[C@@]1(C)C(=O)[C@H](O)C3=C(C)[C@@H](OC(=O)[C@H](O)[C@@H](NC(=O)OC(C)(C)C)c4ccccc4)C[C@@](O)([C@@H](OC(=O)c4ccccc4)[C@H]21)C3(C)C [Docetaxel] | 101.54% | 0.20 | 6.00 | 174.26% | 4.48 | 155.01% | 164.63% | 0.98 | 107%
CCCCCCCCc1ccc(CCC(N)(CO)CO)cc1 [Fingolimod] | 94.97% | -0.64 | -0.06 | 99.25% | 0.58 | 107.15% | 103.20% | 1.42 | 110%
Nc1ccccc1NC(=O)c1ccc(CNc2nccc(-c3cccnc3)n2)cc1 [MGCD0103] | 90.12% | -1.27 | -1.82 | 77.51% | -1.96 | 75.94% | 76.73% | 0.52 | 104%
CS(=O)(=O)c1ccc(C2=C(c3ccccc3)C(=O)OC2)cc1 [ROFECOXIB] | 102.66% | 0.34 | 1.78 | 122.08% |  |  | 87.57% | 1.28 | 109%
Oc1c2ccccc2c2c3c(cccc13)N=N2 [SP600125] | 110.92% | 1.40 | 0.99 | 112.30% | -1.20 | 85.31% | 98.80% | 1.21 | 109%
CO[C@H]1C[C@@H]2CC[C@@H](C)[C@@](O)(O2)C(=O)C(=O)N2CCCC[C@H]2C(=O)O[C@H]([C@H](C)C[C@@H]2CC[C@@H](O)[C@H](OC)C2)CC(=O)[C@H](C)/C=C(\C)[C@@H](O)[C@@H](OC)C(=O)[C@H](C)C[C@H](C)/C=C/C=C/C=C/1C [Sirolimus] | 80.58% | -2.49 | 1.26 | 115.56% | 0.41 | 105.07% | 110.32% | 0.38 | 103%
Cc1cc(Nc2cc(N3CCN(C)CC3)nc(Sc3ccc(NC(=O)C4CC4)cc3)n2)[nH]n1 [TOZASERTIB] | 73.72% | -3.37 | -1.55 | 80.77% | -6.02 | 26.01% | 53.39% | 0.86 | 106%
